Data on three molecules can be found in patent US12180187B2, “1-phenyl-5-azinylpyrazolyl-3-oxyalkyl acids and their use for controlling unwanted plant growth” (BAYER AKTIENGESELLSCHAFT, priority 2019, dated 2024).

In experiment [1] the test system is KCHSC. The experiment in a line: Pre-emergence action against KCHSC, 1280 g/ha. In kind it is in vivo, Bassia scoparia. To be noted: scored visually after about 3 weeks vs untreated controls (100% = plants have died). The source says: 1. Pre-Emergence Herbicidal Effect and Crop Plant Compatibility a) Seeds of mono- and dicotyledonous weed plants are placed in plastic pots in sandy loam soil (doubly sown with one species each of mono- or dicotyledonous weed plants per pot) and covered with soil. The compounds of the invention, formulated in the form of wettable powders (WP) or as emulsion concentrates (EC), are then applied onto the surface of the covering soil as aqueous suspension or emulsion with addition of 0.5% additive at a water application rate equivalent to 600 litres per hectare. After the treatment, the pots are placed in a greenhouse and kept under good growth conditions for the trial plants. After about 3 weeks, the effect of the preparations is scored visually in comparison with untreated controls as percentages. For example, 100% activity=the plants have died, 0% activity=like control plants. 1. Pre-Emergence Effectiveness Tables 1 to 12 below show the effects of selected compounds of the general formula (I) according to Tables 1 and 2 on various harmful plants and at an application rate corresponding to 1280 g/ha, which were obtained by the experimental procedure mentioned above.

Experiment [2] has as its system ALOMY. The experiment in a line: Post-emergence action against ALOMY, 1.28 kg/ha. Format: in vivo, Alopecurus myosuroides. To be noted: dosage 1280 g/ha, visual rating about 3 weeks after treatment vs untreated controls. A digest of the protocol: (§1)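 Percent activity was scored visually ~3 wk post-spray relative to untreated plants. Treatment was post-emergence at the one-leaf stage using WP/EC in water with 0.5% additive (600 L/ha).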

Experiment [3] concerns SETVI. Put plainly: Pre-emergence action against SETVI, 1280 g/ha. In kind it is in vivo, Setaria viridis. To be noted: visual scoring after about 3 weeks vs untreated controls, 100% = plants have died, 0% = like control plants. In outline:
(§2)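 Visual percent-effect ratings (0% = like control, 100% = plants dead) were taken about 3 weeks after pre-emergence soil-surface application of WP/EC aqueous formulations with 0.5% additive, 600 L water/ha. Seeds were sown in sandy loam and grown in the greenhouse.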

The test system of experiment [4] is VERPE. Put plainly: Post-emergence action against VERPE, 1.28 kg/ha. To be noted: dosage 1280 g/ha, visual rating about 3 weeks after treatment vs untreated controls (100% = plants died). Format: in vivo, Veronica persica. A digest of the protocol: as §1
Experiment [5] deals with MATIN. The experiment in a line: Post-emergence action against MATIN, 1.28 kg/ha. In kind it is in vivo, Tripleurospermum inodorum (Matricaria inodora). The note with it: dosage 1280 g/ha, visual rating about 3 weeks after treatment vs untreated controls (100% = plants died). A digest of the protocol:
as §1

For experiment [6], the system named is POAAN. Put plainly: Post-emergence action against POAAN, 1.28 kg/ha. Format: in vivo, Poa annua. To be noted: dosage 1280 g/ha, visual rating about 3 weeks after treatment vs untreated controls. A digest of the protocol: as §1
The test system of experiment [7] is STEME. Put plainly: Pre-emergence action against STEME, 1280 g/ha. Format: in vivo, Stellaria media. To be noted: scored visually after about 3 weeks vs untreated controls (100% = plants have died). In outline:
as §2

Experiment [8] concerns STEME. The experiment in a line: Post-emergence action against STEME, 1.28 kg/ha. Format: in vivo, Stellaria media. The note with it: dosage 1280 g/ha, visual rating about 3 weeks after treatment vs untreated controls (100% = plants died). In outline: as §1
For experiment [9], the system named is AMARE. Put plainly: Post-emergence action against AMARE, 1.28 kg/ha. The note with it: dosage 1280 g/ha, visual rating about 3 weeks after treatment vs untreated controls (100% = plants died). In kind it is in vivo, Amaranthus retroflexus. A digest of the protocol:
as §1

The subject of experiment [10] is MATIN. The experiment in a line: Pre-emergence action against MATIN, 1280 g/ha. In kind it is in vivo, Tripleurospermum inodorum (Matricaria inodora). To be noted: scored visually after about 3 weeks vs untreated controls (100% = plants have died). A digest of the protocol:
as §2

Experiment [11] relates to KCHSC. The experiment in a line: Post-emergence action against KCHSC, 1.28 kg/ha. In kind it is in vivo, Bassia scoparia. To be noted: dosage 1280 g/ha, visual rating about 3 weeks after treatment vs untreated controls (100% = plants died). A digest of the protocol: as §1
The subject of experiment [12] is POAAN. The experiment in a line: Pre-emergence action against POAAN, 1280 g/ha. To be noted: visual scoring after about 3 weeks vs untreated controls, 100% = plants have died, 0% = like control plants. In kind it is in vivo, Poa annua. In outline:
as §2

Experiment [13] concerns LOLRI. The experiment in a line: Pre-emergence action against LOLRI, 1280 g/ha. In kind it is in vivo, Lolium rigidum. The note with it: visual scoring after about 3 weeks vs untreated controls, 100% = plants have died, 0% = like control plants. A digest of the protocol:
as §2

In experiment [14] the test system is AMARE. The experiment in a line: Pre-emergence action against AMARE, 1280 g/ha. Format: in vivo, Amaranthus retroflexus. The note with it: scored visually after about 3 weeks vs untreated controls (100% = plants have died). In outline: as §2
Experiment [15] deals with DIGSA. The experiment in a line: Pre-emergence action against DIGSA, 1280 g/ha. In kind it is in vivo, Digitaria sanguinalis. The note with it: visual scoring after about 3 weeks vs untreated controls, 100% = plants have died, 0% = like control plants. In outline: as §2
Experiment [16] deals with ECHCG. The experiment in a line: Pre-emergence action against ECHCG, 1280 g/ha. Format: in vivo, Echinochloa crus-galli. The note with it: visual scoring after about 3 weeks vs untreated controls, 100% = plants have died, 0% = like control plants. A digest of the protocol:
as §2

The test system of experiment [17] is ALOMY. Put plainly: Pre-emergence action against ALOMY, 1280 g/ha. Format: in vivo, Alopecurus myosuroides. The note with it: visual scoring after about 3 weeks vs untreated controls, 100% = plants have died, 0% = like control plants. In outline:
as §2

Experiment [18] concerns ECHCG. The experiment in a line: Post-emergence action against ECHCG, 1.28 kg/ha. To be noted: dosage 1280 g/ha, visual rating about 3 weeks after treatment vs untreated controls. In kind it is in vivo, Echinochloa crus-galli. In outline: as §1
Experiment [19] deals with DIGSA. The experiment in a line: Post-emergence action against DIGSA, 1.28 kg/ha. In kind it is in vivo, Digitaria sanguinalis. The note with it: dosage 1280 g/ha, visual rating about 3 weeks after treatment vs untreated controls. A digest of the protocol:
as §1

In experiment [20] the test system is SETVI. The experiment in a line: Post-emergence action against SETVI, 1.28 kg/ha. In kind it is in vivo, Setaria viridis. To be noted: dosage 1280 g/ha, visual rating about 3 weeks after treatment vs untreated controls. In outline: as §1
Experiment [21] relates to VERPE. Put plainly: Pre-emergence action against VERPE, 1280 g/ha. To be noted: scored visually after about 3 weeks vs untreated controls (100% = plants have died). In kind it is in vivo, Veronica persica. In outline:
as §2

The next experiment relates to ABUTH. The experiment in a line: Post-emergence action against ABUTH, 1.28 kg/ha. In kind it is in vivo, Abutilon theophrasti. The note with it: dosage 1280 g/ha, visual rating about 3 weeks after treatment vs untreated controls (100% = plants died). In outline: as §1
For experiment [22], the system named is LOLRI. The experiment in a line: Post-emergence action against LOLRI, 1.28 kg/ha. In kind it is in vivo, Lolium rigidum. To be noted: dosage 1280 g/ha, visual rating about 3 weeks after treatment vs untreated controls. A digest of the protocol:
as §1

Consider `O=C(O)C1CCCN1C(=O)COc1nn(-c2ccccc2F)c(-c2ccc(F)nc2)c1Br` (stereo not shown) [Example X-009], for which the “Pre-emergence action against KCHSC” value in the experiment with KCHSC [1] stood at 90%. In addition, the “Post-emergence action against ALOMY” value in the experiment on ALOMY [2] came to 100%. Also, the “Pre-emergence action against SETVI” value in the experiment on SETVI [3] came to 100%. In addition, the “Post-emergence action against VERPE” value with VERPE [4] is on record as 100%. In addition, in the experiment with MATIN [5], the “Post-emergence action against MATIN” value is on record as 90%. In addition, the “Post-emergence action against POAAN” value with POAAN [6] turned out to be 100%. Moreover, the “Pre-emergence action against STEME” value in the experiment with STEME [7] is reported as 100%. For the same molecule, the “Post-emergence action against STEME” value in the experiment on STEME [8] turned out to be 100%. Besides, the “Post-emergence action against AMARE” value with AMARE [9] is listed as 100%. The “Pre-emergence action against MATIN” value with MATIN [10] is 100%. For the same molecule, the “Post-emergence action against KCHSC” value in the experiment with KCHSC [11] came to 90%. Also, in the experiment with POAAN [12], the “Pre-emergence action against POAAN” value is recorded as 100%. Moreover, in the experiment on LOLRI [13], the “Pre-emergence action against LOLRI” value was 100%. The “Pre-emergence action against AMARE” value in the experiment with AMARE [14] came to 100%. Further, the “Pre-emergence action against DIGSA” value in the experiment with DIGSA [15] was determined as 90%. Also, the “Pre-emergence action against ECHCG” value with ECHCG [16] is reported as 100%. Moreover, the “Pre-emergence action against ALOMY” value in the experiment on ALOMY [17] is 100%. In addition, the “Post-emergence action against ECHCG” value in the experiment on ECHCG [18] amounted to 100%. Besides, the “Post-emergence action against DIGSA” value in the experiment with DIGSA [19] is on record as 90%. Besides, the “Post-emergence action against SETVI” value with SETVI [20] was 100%. The “Pre-emergence action against VERPE” value in the experiment with VERPE [21] is recorded as 100%. Also, the “Post-emergence action against ABUTH” value in the experiment on ABUTH was determined as 100%.
As for `O=C(COc1nn(-c2ccc(F)cc2F)c(-c2ccc(F)nc2)c1Br)NO` [Example X-028], the “Pre-emergence action against KCHSC” value with KCHSC [1] amounted to 100%. Besides, the “Post-emergence action against ALOMY” value with ALOMY [2] is 100%. Also, the “Pre-emergence action against SETVI” value in the experiment on SETVI [3] worked out at 100%. Also, in the experiment on VERPE [4], the “Post-emergence action against VERPE” value is reported as 100%. The “Post-emergence action against MATIN” value in the experiment on MATIN [5] is 100%. Further, the “Post-emergence action against POAAN” value with POAAN [6] worked out at 100%. For the same molecule, the “Pre-emergence action against STEME” value with STEME [7] is 100%. Further, the “Post-emergence action against STEME” value in the experiment on STEME [8] worked out at 90%. Also, in the experiment on MATIN [10], the “Pre-emergence action against MATIN” value is 100%. For the same molecule, the “Post-emergence action against KCHSC” value in the experiment on KCHSC [11] was determined as 90%. For the same molecule, the “Pre-emergence action against POAAN” value with POAAN [12] came to 100%. In addition, in the experiment with LOLRI [13], the “Pre-emergence action against LOLRI” value is given as 100%. Also, the “Pre-emergence action against AMARE” value in the experiment with AMARE [14] is recorded as 100%. Besides, in the experiment with DIGSA [15], the “Pre-emergence action against DIGSA” value was determined as 100%. In the experiment on ECHCG [16], the “Pre-emergence action against ECHCG” value amounted to 100%. For the same molecule, the “Pre-emergence action against ALOMY” value in the experiment on ALOMY [17] turned out to be 90%. The “Post-emergence action against ECHCG” value with ECHCG [18] is recorded as 100%. The “Post-emergence action against SETVI” value in the experiment on SETVI [20] is listed as 90%. Further, the “Pre-emergence action against VERPE” value in the experiment with VERPE [21] is given as 90%.
As for `COC(=O)[C@@H](C)Oc1nn(-c2ccccc2F)c(-c2cncnc2)c1[N+](=O)[O-]` [VI-006], the “Pre-emergence action against KCHSC” value in the experiment on KCHSC [1] turned out to be 100%. In addition, the “Pre-emergence action against SETVI” value with SETVI [3] is given as 100%. Further, the “Post-emergence action against VERPE” value with VERPE [4] came out at 90%. For the same molecule, the “Post-emergence action against MATIN” value in the experiment on MATIN [5] was 100%. Also, in the experiment on POAAN [6], the “Post-emergence action against POAAN” value is 100%. Further, the “Pre-emergence action against STEME” value in the experiment with STEME [7] was 90%. Further, the “Post-emergence action against LOLRI” value in the experiment on LOLRI [22] came out at 100%. Also, the “Post-emergence action against STEME” value with STEME [8] worked out at 100%. Moreover, the “Pre-emergence action against MATIN” value in the experiment on MATIN [10] is 100%. Also, in the experiment with KCHSC [11], the “Post-emergence action against KCHSC” value is 90%. Moreover, the “Pre-emergence action against POAAN” value in the experiment with POAAN [12] turned out to be 100%. Moreover, the “Pre-emergence action against LOLRI” value in the experiment on LOLRI [13] is reported as 100%. For the same molecule, the “Pre-emergence action against AMARE” value with AMARE [14] is given as 90%. Moreover, in the experiment on DIGSA [15], the “Pre-emergence action against DIGSA” value is 100%. In addition, the “Pre-emergence action against ECHCG” value with ECHCG [16] was 100%. Further, the “Post-emergence action against DIGSA” value with DIGSA [19] is recorded as 90%. In the experiment with VERPE [21], the “Pre-emergence action against VERPE” value turned out to be 100%.
